Assay results published in US10131652B2, “Pyrimidinyloxy benzene derivatives as herbicides” (E. I. DU PONT DE NEMOURS AND COMPANY, priority 2014, dated 2018).

How the values were obtained:
Assay type in all cases: in vivo
[1] = system: chickweed (common chickweed, Stellaria media); assay: Test D postemergence plant response; settings: for Chickweed plant response rating: scale 0 to 100 (0 no effect, 100 complete control); for Plant response rating, Chickweed: scale 0 to 100, 0 no effect, 100 complete control
How it was run: (§1)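 The formulated test chemicals were applied over the foliage of young potted plants (2 to 18 cm tall), which were then held under greenhouse conditions. Between days 13 and 15 each species was rated by eye versus controls, from 0 for no effect up to 100 for complete control.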

kochia (Kochia scoparia) [2] = assay: Test D postemergence plant response; settings: for Kochia plant response rating: 31 g ai/ha, scale 0 to 100 (0 no effect, 100 complete control); for Plant response rating, Kochia: scale 0 to 100, 0 no effect, 100 complete control; for Plant response rating (scale 0 to 100), Kochia: 16 g ai/ha
How it was run: as §1

wild oat (Avena fatua) = assay: Test D postemergence plant response; settings: for Plant response rating (scale 0 to 100), Oat, Wild: 16 g ai/ha
How it was run: as §1

[3] = system: blackgrass (Alopecurus myosuroides); assay: Test B postemergence plant response
How it was run: (§2)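 Visual injury ratings, 0 = no effect to 100 = complete control, versus untreated controls approximately 10 days after postemergence spraying in greenhouse. Plants were at one- to two-leaf stage, 2 to 10 cm tall, in loam soil/sand blend; a dash denotes no result.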

[4] = system: galium (catchweed bedstraw, Galium aparine); assay: Test B postemergence plant response
How it was run: as §2

rice (Oryza sativa) = assay: Test C flooded paddy test plant response; settings: Flood, 250 g ai/ha; scale of 0 to 100 where 0 is no effect and 100 is complete control; 13 to 15 days
How it was run: (§3)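 Plants grown to the 2-leaf stage; pots flooded to 3 cm above soil, test compounds applied directly to paddy water, depth maintained throughout. Greenhouse for 13 to 15 days, then visual rating versus controls on a 0–100 scale (0 no effect, 100 complete control).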

[5] = system: small-flower umbrella sedge (Cyperus difformis); assay: Test C flooded paddy test plant response; settings: Flood, 250 g ai/ha; scale of 0 to 100 where 0 is no effect and 100 is complete control; 13 to 15 days
How it was run: as §3

[6] = system: ducksalad (Heteranthera limosa); assay: Test C flooded paddy test plant response; settings: Flood, 250 g ai/ha; scale of 0 to 100 where 0 is no effect and 100 is complete control; 13 to 15 days
How it was run: as §3

[7] = system: barnyardgrass (Echinochloa crus-galli); assay: Test C flooded paddy test plant response; settings: Flood, 250 g ai/ha; scale of 0 to 100 where 0 is no effect and 100 is complete control; 13 to 15 days
How it was run: as §3

[8] = system: ragweed (common ragweed, Ambrosia elatior); assay: Test B pre-/postemergence plant response
How it was run: (§4)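 Visual injury scores on a 0–100 scale (100 = complete control) relative to untreated plants, taken about 10 days post-treatment in greenhouse. Treatments were a directed preemergence soil spray and a postemergence spray at one- to two-leaf stage, using surfactant-containing solvent formulation.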

[9] = system: giant foxtail (Setaria faberii); assay: Test B pre-/postemergence plant response
How it was run: as §4

[10] = system: wheat (Triticum aestivum); assay: Test B pre-/postemergence plant response
How it was run: as §4

kochia (Kochia scoparia) [11] = assay: Test B pre-/postemergence plant response
How it was run: as §4

corn (Zea mays) = assay: Test B pre-/postemergence plant response
How it was run: as §4

[12] = system: Italian ryegrass (Lolium multiflorum); assay: Test B pre-/postemergence plant response
How it was run: as §4

[13] = system: pigweed (Amaranthus retroflexus); assay: Test B pre-/postemergence plant response
How it was run: as §4

[14] = system: barnyardgrass (Echinochloa crus-galli); assay: Test B pre-/postemergence plant response
How it was run: as §4

[15] = 31 g ai/ha, scale 0 to 100 (0 no effect, 100 complete control)
[16] = 62 g ai/ha, scale 0 to 100, 0 no effect, 100 complete control
[17] = 125 g ai/ha, scale 0 to 100, 0 no effect, 100 complete control
[18] = 125 g ai/ha, postemergence, 0 to 100 scale, 0 no effect, 100 complete control
[19] = Postemergence, 500 g ai/ha, 0 to 100 scale (0 no effect, 100 complete control)
[20] = Preemergence, 125 g ai/ha, 0 to 100 scale (0 no effect, 100 complete control)
[21] = Preemergence, 500 g ai/ha, 0 to 100 scale where 0 is no effect and 100 is complete control
[22] = Postemergence, 31 g ai/ha, 0 to 100 scale (0 no effect, 100 complete control)
[23] = 31 g ai/ha, Preemergence, 0 to 100 scale where 0 is no effect and 100 is complete control

SMILES: FC(F)(F)c1cc(-c2c(Br)cccc2Oc2ncc(Cl)cn2)no1 [Compound 170]
- Chickweed plant response rating ([1]; 16 g ai/ha): 30
- Chickweed plant response rating ([1]; 31 g ai/ha): 65
- Plant response rating, Chickweed ([1]; 62 g ai/ha): 90
- Plant response rating, Chickweed ([1]; 125 g ai/ha): 100
- Kochia plant response rating (kochia (Kochia scoparia) [2]): 60
- Plant response rating, Kochia (kochia (Kochia scoparia) [2]; 62 g ai/ha): 85
- Plant response rating, Kochia (kochia (Kochia scoparia) [2]; 125 g ai/ha): 100
- Oat, Wild plant response rating (wild oat (Avena fatua); [15]): 5
- Plant response rating, Oat, Wild (wild oat (Avena fatua); [16]): 5
- Plant response rating, Oat, Wild (wild oat (Avena fatua); [17]): 10
- Plant response rating, Blackgrass [3, 18]: 50
- Plant response rating, Blackgrass [3, 19]: 60
- Plant response rating, Galium [4, 18]: 80
- Plant response rating, Galium [4, 19]: 100
- Rice plant response rating (rice (Oryza sativa)): 0
- Sedge, Umbrella plant response rating [5]: 0
- Ducksalad plant response rating [6]: 0
- Barnyardgrass plant response rating [7]: 0
- Plant response rating, Ragweed [8, 18]: 10
- Plant response rating, Ragweed [8, 19]: 50
- Ragweed plant response rating [8, 20]: 20
- Plant response rating, Ragweed [8, 21]: 60
- Plant response rating, Foxtail, Giant [9, 18]: 30
- Plant response rating, Foxtail, Giant [9, 19]: 50
- Foxtail, Giant plant response rating [9, 20]: 60
- Plant response rating, Foxtail, Giant [9, 21]: 90
- Plant response rating, Wheat [10, 18]: 0
- Plant response rating, Wheat [10, 19]: 30
- Plant response rating, Kochia (kochia (Kochia scoparia) [11]; [18]): 70
- Plant response rating, Kochia (kochia (Kochia scoparia) [11]; [19]): 100
- Kochia plant response rating (kochia (Kochia scoparia) [11]; [20]): 30
- Plant response rating, Kochia (kochia (Kochia scoparia) [11]; [21]): 80
- Plant response rating, Corn (corn (Zea mays); [18]): 20
- Plant response rating, Corn (corn (Zea mays); [19]): 20
- Plant response rating, Ryegrass, Italian [12, 18]: 0
- Plant response rating, Ryegrass, Italian [12, 19]: 20
- Ryegrass, Italian plant response rating [12, 20]: 0
- Plant response rating, Ryegrass, Italian [12, 21]: 20
- Plant response rating, Pigweed [13, 18]: 100
- Plant response rating, Pigweed [13, 19]: 100
- Pigweed plant response rating [13, 20]: 100
- Plant response rating, Pigweed [13, 21]: 100
- Plant response rating, Barnyardgrass [14, 18]: 0
- Plant response rating, Barnyardgrass [14, 19]: 20
- Barnyardgrass plant response rating [14, 20]: 0
- Plant response rating, Barnyardgrass [14, 21]: 20

SMILES: CC(F)(F)c1cc(-c2ccccc2Oc2ncc(Cl)cn2)on1 [Compound 178]
- Plant response rating (scale 0 to 100), Chickweed ([1]; 16 g ai/ha): 50
- Chickweed plant response rating ([1]; 31 g ai/ha): 50
- Plant response rating, Chickweed ([1]; 62 g ai/ha): 60
- Plant response rating, Chickweed ([1]; 125 g ai/ha): 80
- Plant response rating (scale 0 to 100), Kochia (kochia (Kochia scoparia) [2]): 90
- Kochia plant response rating (kochia (Kochia scoparia) [2]): 95
- Plant response rating, Kochia (kochia (Kochia scoparia) [2]; 62 g ai/ha): 100
- Plant response rating, Kochia (kochia (Kochia scoparia) [2]; 125 g ai/ha): 100
- Plant response rating (scale 0 to 100), Oat, Wild (wild oat (Avena fatua)): 0
- Oat, Wild plant response rating (wild oat (Avena fatua); [15]): 0
- Oat, Wild plant response rating (wild oat (Avena fatua); [16]): 5
- Plant response rating, Oat, Wild (wild oat (Avena fatua); [17]): 5
- Plant response rating, Blackgrass [3, 18]: 40
- Plant response rating, Blackgrass [3, 22]: 10
- Plant response rating, Galium [4, 18]: 100
- Plant response rating, Galium [4, 22]: 80
- Rice plant response rating (rice (Oryza sativa)): 0
- Sedge, Umbrella plant response rating [5]: 85
- Ducksalad plant response rating [6]: 90
- Barnyardgrass plant response rating [7]: 40
- Plant response rating, Ragweed [8, 23]: 0
- Plant response rating, Ragweed [8, 18]: 10
- Plant response rating, Ragweed [8, 22]: 10
- Ragweed plant response rating [8, 20]: 0
- Plant response rating, Foxtail, Giant [9, 23]: 60
- Plant response rating, Foxtail, Giant [9, 18]: 60
- Plant response rating, Foxtail, Giant [9, 22]: 10
- Foxtail, Giant plant response rating [9, 20]: 90
- Plant response rating, Wheat [10, 18]: 10
- Plant response rating, Wheat [10, 22]: 0
- Plant response rating, Kochia (kochia (Kochia scoparia) [11]; [23]): 10
- Plant response rating, Kochia (kochia (Kochia scoparia) [11]; [18]): 100
- Plant response rating, Kochia (kochia (Kochia scoparia) [11]; [22]): 80
- Kochia plant response rating (kochia (Kochia scoparia) [11]; [20]): 20
- Plant response rating, Corn (corn (Zea mays); [18]): 20
- Plant response rating, Corn (corn (Zea mays); [22]): 0
- Plant response rating, Ryegrass, Italian [12, 23]: 0
- Plant response rating, Ryegrass, Italian [12, 18]: 30
- Plant response rating, Ryegrass, Italian [12, 22]: 0
- Ryegrass, Italian plant response rating [12, 20]: 10
- Plant response rating, Pigweed [13, 23]: 90
- Plant response rating, Pigweed [13, 18]: 100
- Plant response rating, Pigweed [13, 22]: 100
- Pigweed plant response rating [13, 20]: 100
- Plant response rating, Barnyardgrass [14, 23]: 20
- Plant response rating, Barnyardgrass [14, 18]: 40
- Plant response rating, Barnyardgrass [14, 22]: 0
- Barnyardgrass plant response rating [14, 20]: 70

SMILES: FC(F)c1cc(-c2c(Cl)cccc2Oc2ncc(Cl)cn2)no1 [Compound 179]
- Plant response rating (scale 0 to 100), Chickweed ([1]; 16 g ai/ha): 70
- Chickweed plant response rating ([1]; 31 g ai/ha): 80
- Plant response rating, Chickweed ([1]; 62 g ai/ha): 95
- Plant response rating, Chickweed ([1]; 125 g ai/ha): 95
- Plant response rating (scale 0 to 100), Kochia (kochia (Kochia scoparia) [2]): 90
- Kochia plant response rating (kochia (Kochia scoparia) [2]): 100
- Plant response rating, Kochia (kochia (Kochia scoparia) [2]; 62 g ai/ha): 100
- Plant response rating, Kochia (kochia (Kochia scoparia) [2]; 125 g ai/ha): 100
- Plant response rating (scale 0 to 100), Oat, Wild (wild oat (Avena fatua)): 0
- Oat, Wild plant response rating (wild oat (Avena fatua); [15]): 5
- Oat, Wild plant response rating (wild oat (Avena fatua); [16]): 15
- Plant response rating, Oat, Wild (wild oat (Avena fatua); [17]): 20
- Plant response rating, Blackgrass [3, 18]: 80
- Plant response rating, Blackgrass [3, 19]: 100
- Plant response rating, Galium [4, 18]: 100
- Plant response rating, Galium [4, 19]: 100
- Rice plant response rating (rice (Oryza sativa)): 40
- Sedge, Umbrella plant response rating [5]: 80
- Ducksalad plant response rating [6]: 80
- Barnyardgrass plant response rating [7]: 0
- Plant response rating, Ragweed [8, 18]: 10
- Plant response rating, Ragweed [8, 19]: 30
- Ragweed plant response rating [8, 20]: 10
- Plant response rating, Ragweed [8, 21]: 40
- Plant response rating, Foxtail, Giant [9, 18]: 40
- Plant response rating, Foxtail, Giant [9, 19]: 80
- Foxtail, Giant plant response rating [9, 20]: 80
- Plant response rating, Foxtail, Giant [9, 21]: 100
- Plant response rating, Wheat [10, 18]: 40
- Plant response rating, Wheat [10, 19]: 90
- Plant response rating, Kochia (kochia (Kochia scoparia) [11]; [18]): 90
- Plant response rating, Kochia (kochia (Kochia scoparia) [11]; [19]): 100
- Kochia plant response rating (kochia (Kochia scoparia) [11]; [20]): 100
- Plant response rating, Kochia (kochia (Kochia scoparia) [11]; [21]): 100
- Plant response rating, Corn (corn (Zea mays); [18]): 10
- Plant response rating, Corn (corn (Zea mays); [19]): 40
- Plant response rating, Ryegrass, Italian [12, 18]: 90
- Plant response rating, Ryegrass, Italian [12, 19]: 100
- Ryegrass, Italian plant response rating [12, 20]: 20
- Plant response rating, Ryegrass, Italian [12, 21]: 40
- Plant response rating, Pigweed [13, 18]: 100
- Plant response rating, Pigweed [13, 19]: 100
- Pigweed plant response rating [13, 20]: 100
- Plant response rating, Pigweed [13, 21]: 100
- Plant response rating, Barnyardgrass [14, 18]: 10
- Plant response rating, Barnyardgrass [14, 19]: 80
- Barnyardgrass plant response rating [14, 20]: 10
- Plant response rating, Barnyardgrass [14, 21]: 90
